# Activity calls are given as the source filed them. The calls are words filed in the database; no cut-off is given here.
# Assays:
# A-375 [1] = test: Induction of apoptosis in human A-375 cells at 80 nM measured after 8 hrs by Annexin V-FITC and DAPI staining based flow cytometric analysis; assay type: functional
# A-375 [2] = test: Induction of cell cycle arrest in human A-375 cells assessed as accumulation of cells at G2 phase at 40 nM incubated for 24 hrs by PI based flow cytometric analysis (RVB = 20.34%); assay type: functional
# A549 = test: Cytotoxicity against human A549 cells expressing high level of topoisomerase I/II measured after 72 hrs by MTT assay; assay type: functional, cell-based; details: A549, 72 h
# [3] = Microsomal stability in mouse liver microsomes assessed as clearance measured at 2 ug/ml upto 60 mins in presence of NADPH generating system and UGT incubation system by phase II metabolic stability kit method; assay type: ADME, Microsome; details: dose 2 µg/ml, read-out: CLH
# [4] = Toxicity in BALB/c nude mouse xenografted with human A-375 cells assessed as tolerability treated after 7 days of tumor implantation on right flank subcutaneously at 20 mg/kg, iv administered once per 2 days for 14 days measured once every two days; assay type: organism-based; details: in vivo, 336 h, time 14 day
# HCT-116 = test: Antiproliferative activity against doxorubicin sensitive human HCT-116 cells measured after 72 hrs by MTT assay; assay type: functional, cell-based; details: HCT-116, 72 h
# MCF7 = test: Cytotoxicity against human MCF7 cells expressing high level of topoisomerase I/II measured after 72 hrs by MTT assay; assay type: functional, cell-based; details: MCF7, 72 h
# A-375 [5] = test: (§1) In vivo induction of apoptosis in human A-375 cells xenografted in BALB/c nude mouse treated after 7 days of tumor implantation on right flank subcutaneously at 10 to 20 mg/kg, iv administered once per 2 days for 14 days by measuring TUNEL positive cells under a light microscope; assay type: functional, organism-based; details: dose 10-20 mg/kg, time 14.0 day
# A-375 [6] = test: Induction of apoptosis in human A-375 cells at 40 nM measured after 24 hrs by Annexin V-FITC and DAPI staining based flow cytometric analysis; assay type: functional
# A-375 [7] = test: Inhibition of colony formation in human A-375 cells at 20 to 40 nM incubated for 48 hrs by crystal violet staining method; assay type: functional, cell-based; details: dose 20-40 nM
# A-375 [8] = test: Induction of cell cycle arrest in human A-375 cells assessed as accumulation of cells at S phase at 40 nM incubated for 24 hrs by PI based flow cytometric analysis (RVB = 26.73%); assay type: functional
# [9] = In vivo acute toxicity in Balb/C mouse assessed as pathological damage in liver at 50 mg/kg, iv administered once per 2 days for 7 days measured 24 hrs after last dose by H and E staining method; assay type: organism-based; details: 168 h, time 7 day
# A-375 [10] = test: Induction of apoptosis in human A-375 cells assessed as increase in expression level of C-caspase-9 measured after 24 hrs by Western blotting analysis; assay type: functional, cell-based; details: dose 40-120 nM, DDE = dose-dependent effect
# [11] = In vivo acute toxicity in Balb/C mouse assessed as effect on body weight at 50 mg/kg, iv administered once per 2 days for 7 days measured every other day; assay type: organism-based; details: 168 h, time 7 day
# [12] = In vivo acute toxicity in Balb/C mouse assessed as mortality at 10 to 50 mg/kg, iv administered once per 2 days for 7 days; assay type: organism-based; details: 168 h, dose 10-50 mg/kg, time 7 day
# A-375 [13] = test: as §1, with “mouse assessed as […]” for “mouse”; assay type: functional, organism-based; details: dose 10-20 mg/kg, time 14.0 day
# MDA-MB-231 = test: Cytotoxicity against human MDA-MB-231 cells expressing high level of topoisomerase I/II measured after 72 hrs by MTT assay; assay type: functional, cell-based; details: MDA-MB-231, 72 h
# [14] = Toxicity in BALB/c nude mouse xenografted with human A-375 cells assessed as body weight loss treated after 7 days of tumor implantation on right flank subcutaneously at 10 to 20 mg/kg, iv administered once per 2 days for 14 days measured once every two days; assay type: organism-based; details: in vivo, 336 h, dose 10-20 mg/kg, time 14 day
# A-375 [15] = test: Induction of apoptosis in human A-375 cells assessed as increase in expression level of Bad measured after 24 hrs by Western blotting analysis; assay type: functional, cell-based; details: dose 40-120 nM, DDE = dose-dependent effect
# [16] = Cytotoxicity against human L02 cells measured after 72 hrs by MTT assay; assay type: toxicity, cell-based
# Calf thymus DNA [17] = test: Binding affinity to calf thymus DNA assessed as intercalation by measuring hypochromic shift at 292 nm by […]; assay type: nucleic-acid assay; details: Bos taurus
# [18] = Volume of distribution in Kunming mouse plasma at 10 mg/kg, iv administered as single dose measured after 5 to 360 mins by HPLC analysis; assay type: ADME, organism-based; details: time 5-360 min
# A-375 [19] = test: Induction of apoptosis in human A-375 cells assessed as increase in expression level of Bax measured after 24 hrs by Western blotting analysis; assay type: functional, cell-based; details: dose 40-120 nM, DDE = dose-dependent effect
# Calf thymus DNA [20] = test: Binding affinity to calf thymus DNA assessed as intercalation by measuring hypochromic shift at 389 nm by […]; assay type: nucleic-acid assay; details: Bos taurus
# A-375 [21] = test: Induction of apoptosis in human A-375 cells at 80 nM measured after 24 hrs by Annexin V-FITC and DAPI staining based flow cytometric analysis; assay type: functional
# [22] = Tmax in Kunming mouse plasma at 10 mg/kg, iv administered as single dose measured after 5 to 360 mins by HPLC analysis; assay type: ADME, organism-based; details: time 5-360 min
# [23] = In vivo acute toxicity in Balb/C mouse assessed as pathological damage in spleen at 50 mg/kg, iv administered once per 2 days for 7 days measured 24 hrs after last dose by H and E staining method; assay type: organism-based; details: 168 h, time 7 day
# A-375 [24] = test: Induction of apoptosis in human A-375 cells at 120 nM measured after 24 hrs by Annexin V-FITC and DAPI staining based flow cytometric analysis; assay type: functional
# A-375 [25] = test: Induction of cell cycle arrest in human A-375 cells assessed as accumulation of cells at G2 phase at 80 nM incubated for 24 hrs by PI based flow cytometric analysis (RVB = 20.34%); assay type: functional
# A-375 [26] = test: Antimigratory activity in human A-375 cells assessed as reduction in cell migration incubated for 24 hrs by wound healing assay; assay type: functional, cell-based; details: dose 10-40 nM, DDE = dose-dependent effect
# A-375 [27] = test: Induction of apoptosis in human A-375 cells at 80 nM measured after 16 hrs by Annexin V-FITC and DAPI staining based flow cytometric analysis; assay type: functional
# A-375 [28] = test: Induction of cell cycle arrest in human A-375 cells assessed as accumulation of cells at S phase at 20 nM incubated for 24 hrs by PI based flow cytometric analysis (RVB = 26.73%); assay type: functional
# A-375 [29] = test: Induction of cell cycle arrest in human A-375 cells assessed as accumulation of cells at G1 phase at 80 nM incubated for 24 hrs by PI based flow cytometric analysis (RVB = 52.94%); assay type: functional
# A-375 [30] = test: In vivo antitumor activity against human A-375 cells xenografted in BALB/c nude mouse assessed as shrinkage of tumor tissue treated after 7 days of tumor implantation on right flank subcutaneously at 10 to 20 mg/kg, iv administered once per 2 days for 14 days measured once every two days; assay type: functional, organism-based; details: dose 10-20 mg/kg, time 14.0 day
# A-375 [31] = test: Cytotoxicity against human A-375 cells expressing high level of topoisomerase I/II measured after 72 hrs by MTT assay; assay type: functional, cell-based; details: A-375, 72 h
smiles,measurement,setting,value
O=C1c2c[n+]([O-])c3ccccc3c2C(=O)c2c1c1ccccc1n2Cc1cn([C@@H]2C[C@H](O)[C@@H](CO)O2)nn1,Activity,A-375 [1],7.14%
same,Activity,A-375 [2],27.87%
same,IC50,A549,120 nM
same,microsomal CLint at 2 ug/ml,[3],35 µL/min/mg
same,Activity,[4],Non-Toxic
same,IC50,HCT-116,50 nM
same,IC50,MCF7,110 nM
same,Activity,A-375 [5],Active
same,Activity,A-375 [6],23.26%
same,inhibition,A-375 [7],Active
same,Activity,A-375 [8],43.2%
same,Activity,[9],Non-Toxic
same,Activity,A-375 [10],Dde
same,Activity,[11],Non-Toxic
same,Activity,[12],Non-Toxic
same,Activity,A-375 [13],Active
same,IC50,MDA-MB-231,130 nM
same,Activity,[14],Non-Toxic
same,Activity,A-375 [15],Dde
same,IC50 at 72 h,[16],630 nM
same,Activity,Calf thymus DNA [17],44%
same,Vd,[18],0.234 L/kg
same,Activity,A-375 [19],Dde
same,Activity,Calf thymus DNA [20],29%
same,Activity,A-375 [21],36.21%
same,Tmax,[22],5 min
same,Activity,[23],Non-Toxic
same,Activity,A-375 [24],55.94%
same,Activity,A-375 [25],6.88%
same,Activity,A-375 [26],Dde
same,Activity,A-375 [27],23.78%
same,Activity,A-375 [28],38.36%
same,Activity,A-375 [29],34.99%
same,Activity,A-375 [30],Active
same,IC50,A-375 [31],20 nM

# From ChEMBL document CHEMBL5154929, “Optimization of the Natural Product Calothrixin A to Discover Novel Dual Topoisomerase I and II Inhibitors with Improved Anticancer Activity” (J Med Chem, 2022)
